# Data published in article PMC9851200, “Multiparameter phenotypic screening for endogenous TFEB and TFE3 translocation identifies novel chemical series modulating lysosome function” (Autophagy, 2022).
# Columns and labels:
# TLK2 = molecular target: T1, TLK2 (Homo sapiens, UniProt Q86UE8); experiment: KiNativ in-cell kinase binding, TLK2; settings: SH-SY5Y cells
# T1 construct: endogenous in cells; host or cells: SH-SY5Y
# From the text: (§1) As KINOMEscan is an in vitro assay, and as different cell types have variable kinase expression profiles we sought to determine the kinase binding profile in our SH-SY5Y TFEB-relocalization cell model. […] Bound kinases were pulled down and analyzed by mass spectrometry to determine the in situ kinase binding profile for each compound.
# GFP-Ex1HTT74Q = experiment: HTT aggregation assay, PC12 cells expressing GFP-Ex1HTT74Q; assay type: cell-based; settings: 48 h, 16 nM - 2 µM
# Protocol: PC12 cells stably expressing GFP-tagged exon 1 of HTT with a 74-repeat polyglutamine-expansion (GFP-Ex1HTT74Q) under tetracycline-inducible promoter control [41]were maintained at 37°C and 5% CO2 in RPMI medium (Sigma Aldrich, R8758) supplemented with 10% horse serum (Sigma Aldrich, H1138), 5% fetal bovine serum, 1% Glutamine (Sigma Aldrich, G7513), 1% Pen-Strep (Sigma, P0781), 0.1 mg/mL G418 (ThermoFisher, 10,131,035), and 0.07 mg/mL hygromycin B (ThermoFisher, 10,687,010). Cells were plated at a density of 10,000 per well in 96-well black cycloolefin thin-bottom plates (Perkin Elmer, 6,055,300) coated with collagen IV (Sigma Aldrich, C5533). After 5 h, expression of GFP-Ex1HttQ74 was induced with doxycycline (100 ng/mL; Sigma Aldrich, D3447). After 16 h of induction, compounds (final concentrations 16 nM – 2 µM) were added in fresh medium with doxycycline (100 ng/ml). Final concentration of DMSO (Sigma Aldrich, D8418) was 0.1% in all wells. After 48 h of incubation in the presence of compound, cells were washed once in PBS and fixed with 4% paraformaldehyde (Thermofisher Scientific, 28,908) supplemented with 10 µg/mL Hoechst 33,342 (ThermoFisher Scientific, H3570) for 15 min. […] Image feature extraction was carried out using CellProfiler software. Data aggregation, normalization and distance score calculations were carried out using StratoMineR software.
# PRKD2 = molecular target: T2, PRKD2 (Homo sapiens, UniProt Q9BZL6); experiment: KiNativ in-cell kinase binding, PRKD2; set-up: endogenous in cells; host or cells: SH-SY5Y
# T2 sequence (Q9BZL6 1-878): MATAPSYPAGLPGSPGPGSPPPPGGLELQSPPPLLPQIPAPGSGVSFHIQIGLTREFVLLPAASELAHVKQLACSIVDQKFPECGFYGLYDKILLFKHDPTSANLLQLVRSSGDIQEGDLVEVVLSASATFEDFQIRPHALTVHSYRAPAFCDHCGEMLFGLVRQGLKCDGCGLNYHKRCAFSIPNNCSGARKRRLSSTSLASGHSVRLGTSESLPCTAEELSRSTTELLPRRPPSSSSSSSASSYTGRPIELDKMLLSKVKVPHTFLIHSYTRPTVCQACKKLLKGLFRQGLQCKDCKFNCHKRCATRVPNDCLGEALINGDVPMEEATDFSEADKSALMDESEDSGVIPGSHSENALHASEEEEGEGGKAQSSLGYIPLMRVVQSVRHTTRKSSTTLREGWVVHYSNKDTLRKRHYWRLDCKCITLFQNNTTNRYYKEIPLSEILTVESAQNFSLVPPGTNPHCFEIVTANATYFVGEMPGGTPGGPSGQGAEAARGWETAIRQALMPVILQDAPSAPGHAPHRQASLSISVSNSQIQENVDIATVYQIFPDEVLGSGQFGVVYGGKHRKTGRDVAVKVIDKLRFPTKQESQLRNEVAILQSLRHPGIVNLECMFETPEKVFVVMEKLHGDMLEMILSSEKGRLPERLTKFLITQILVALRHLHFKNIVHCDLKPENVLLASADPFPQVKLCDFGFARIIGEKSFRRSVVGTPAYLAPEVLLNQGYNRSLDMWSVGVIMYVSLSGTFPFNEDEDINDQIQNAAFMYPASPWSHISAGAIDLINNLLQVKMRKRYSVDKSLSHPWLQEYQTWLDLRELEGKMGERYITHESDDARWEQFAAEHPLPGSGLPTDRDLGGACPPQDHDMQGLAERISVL
# From the text: as §1
# TFE3 = TFE3 nuclear translocation in iPSC-derived i3Neurons; assay type: cell-based, human; settings: day 10
# Protocol: hiPSCs were maintained under feeder-free conditions in a 37°C, 5% CO2 tissue culture incubator on tissue culture treated dishes coated with growth factor-reduced Matrigel (Corning, 354,277) and fed every 1–2 days with Essential 8 medium (Life Technologies, A1517001), as needed. Accutase ([…] Technologies, 07920) was used to enzymatically dissociate hiPSCs into single cells, and 0.5 mM EDTA was used for routine dissociation to maintain colony growth. To promote cell survival during passaging, cells were passaged with the ROCK/p160-Rho-associated coiled coil kinase inhibitor Y-27632 ([…]; Selleckchem, S1049). hiPSC-derived i^3Neurons were induced and differentiated according to Fernandopulle et al. and replated on high-content 96-well dishes (PerkinElmer, CellCarrierUltra-96) by day 3. […]
# After the required compound incubation, media was removed from the wells and the cells were fixed in 4% paraformaldehyde (PFA; ThermoFisher Scientific/Pierce, 28,908) for 20 min. […] The Harmony image analysis software (Perkin Elmer) was used to identify nuclei TFEB or TFE3 positive nuclei, expressed as a percentage of total cell number (See Figure S2 and S3 for analysis protocols). Mean values and standard deviation of DMSO control wells on the plate were calculated. […]
# MAPK9/JNK2 = MAPK9/JNK2 (Homo sapiens, UniProt P45984); assay type: binding
# Sequence of MAPK9/JNK2 (P45984 whole entry): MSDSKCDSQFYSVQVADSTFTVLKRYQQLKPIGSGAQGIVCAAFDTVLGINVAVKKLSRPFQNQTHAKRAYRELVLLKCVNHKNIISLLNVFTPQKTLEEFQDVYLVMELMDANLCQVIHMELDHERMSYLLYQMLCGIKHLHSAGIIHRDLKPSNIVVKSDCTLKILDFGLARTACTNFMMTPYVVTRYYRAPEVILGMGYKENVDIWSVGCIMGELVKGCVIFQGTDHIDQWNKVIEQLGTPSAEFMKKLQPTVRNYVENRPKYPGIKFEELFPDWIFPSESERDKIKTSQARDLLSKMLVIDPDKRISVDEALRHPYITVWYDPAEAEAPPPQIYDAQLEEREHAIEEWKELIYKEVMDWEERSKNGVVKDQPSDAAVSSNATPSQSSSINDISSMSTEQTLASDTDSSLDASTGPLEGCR
# T1 sequence (Q86UE8 whole entry): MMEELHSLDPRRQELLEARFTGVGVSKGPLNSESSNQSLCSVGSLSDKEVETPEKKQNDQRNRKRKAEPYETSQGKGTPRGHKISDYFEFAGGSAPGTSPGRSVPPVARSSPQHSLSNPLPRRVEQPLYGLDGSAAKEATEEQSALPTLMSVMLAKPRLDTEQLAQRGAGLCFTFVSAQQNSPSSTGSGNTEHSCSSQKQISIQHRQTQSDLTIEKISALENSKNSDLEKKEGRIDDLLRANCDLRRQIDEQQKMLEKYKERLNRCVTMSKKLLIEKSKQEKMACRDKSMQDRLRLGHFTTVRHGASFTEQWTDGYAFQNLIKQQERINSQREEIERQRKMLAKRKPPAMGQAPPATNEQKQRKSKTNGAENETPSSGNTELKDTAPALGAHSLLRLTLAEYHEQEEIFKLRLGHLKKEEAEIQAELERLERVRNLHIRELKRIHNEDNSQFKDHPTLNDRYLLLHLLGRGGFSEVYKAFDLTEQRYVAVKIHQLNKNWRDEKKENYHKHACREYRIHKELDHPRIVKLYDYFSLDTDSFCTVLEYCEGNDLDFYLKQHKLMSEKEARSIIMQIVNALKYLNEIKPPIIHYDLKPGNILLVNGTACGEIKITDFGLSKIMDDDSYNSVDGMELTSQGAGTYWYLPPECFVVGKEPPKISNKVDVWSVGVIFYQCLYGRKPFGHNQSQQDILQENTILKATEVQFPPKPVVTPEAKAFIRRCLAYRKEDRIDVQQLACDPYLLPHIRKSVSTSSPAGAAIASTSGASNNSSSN
SMILES,"inhibition at 2 µM (TLK2; Labeling Site Lys1, YVAVKIHQLNK)","inhibition at 2 µM (TLK2; Labeling Site Lys2, YLNEIKPPIIHYDLKPGNILLVNGTACGEIK)",HTT fluorescent aggregates / cells bearing aggregates (in words) (GFP-Ex1HTT74Q),"inhibition at 2 µM (PRKD2; 2µM, SH-SY5Y cells, Labeling Site Lys1, […])",KiNativ binding of PRKD2 (in words) (PRKD2; SH-SY5Y cells treated 2 h),Nuclear translocation of TFE3 in i3Neurons (in words) (TFE3),KINOMEscan MAPK9/JNK2 (MAPK9/JNK2)
Cc1cccc(-c2nc(Nc3ccc4ncsc4c3)c3ccccc3n2)n1 [NK140],52.7%,50%,no reduction in fluorescent aggregates,51.7%,bound,trend toward upregulation of TFE3 translocation,
Cc1cccc(-c2nc(N(C)c3ccc4ncsc4c3)c3ccccc3n2)n1 [NK-161],,,,,,,7
